Results reported in PubChem BioAssay (NCI).
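All cell lines were grown in 96-well plates and treated with compound for 48 hours. Here, GI50 denotes the concentration required for 50% inhibition of growth. The concentration for full growth arrest is given as TGI.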

Columns and labels:
Experiment in all cases: DTP human tumour cell line panel, 48 h
[1] = test system: HL-60(TB) leukemia
[2] = test system: HOP-62 NSCLC
[3] = test system: CAKI-1 renal
[4] = test system: SW-620 colon
[5] = test system: HCT-15 colon
[6] = test system: M14 melanoma
[7] = test system: KM12 colon
[8] = test system: CCRF-CEM leukemia
[9] = test system: OVCAR-4 ovarian
[10] = test system: EKVX NSCLC

In the case of CCOC(=O)c1c(Cl)c2c(n1Cc1cc(OC)cc(OC)c1)-c1oncc1CCC2, the GI50 [1] is reported as 0.293 µM, the TGI [1] is reported as 1.03 µM and the GI50 [2] is reported as 0.466 µM. It also gave a TGI [2] of over 33.3 µM, a GI50 [3] of 0.29 µM and a TGI [3] of over 60.7 µM. The GI50 [4] was 0.344 µM, the TGI [4] was over 100 µM and the GI50 [5] was 0.387 µM. For the same compound, the TGI [5] was over 100 µM, the GI50 [6] was 0.266 µM and the TGI [6] was over 100 µM. It also gave a GI50 [7] of 0.346 µM, a TGI [7] of over 100 µM and a GI50 [8] of 0.295 µM. It also gave a TGI [8] of over 100 µM, a GI50 [9] of 1.91 µM and a TGI [9] of over 85.3 µM.

CN(C)CC1CCn2c(c(C3=C(c4cn(C)c5ccccc45)C(=O)NC3=O)c3ccccc32)C1 (centres undefined) showed a GI50 [1] of 5.87 µM, a TGI [1] of 11.2 µM and a GI50 [2] of 4.55 µM. It also gave a TGI [2] of 8.91 µM, a GI50 [3] of 3.44 µM and a TGI [3] of 7.66 µM. The GI50 [4] was 4.16 µM, the TGI [4] was 8.32 µM and the GI50 [5] was 4.1 µM. For the same compound, the TGI [5] was 10.1 µM, the GI50 [6] was 4.11 µM and the TGI [6] was 8.04 µM. For the same compound, the GI50 [7] was 4.14 µM, the TGI [7] was 8.26 µM and the GI50 [8] was 6.41 µM. For the same compound, the TGI [8] was 24.2 µM, the GI50 [9] was 4.32 µM and the TGI [9] was 9.3 µM.

CN1CCN(Cc2ccc(Nc3ncc(Cl)c(Nc4ccccc4S(=O)(=O)N(C)C)n3)cc2)CC1 showed a GI50 [1] of 0.0175 µM, a TGI [1] of 0.198 µM and a GI50 [2] of 0.0344 µM. The TGI [2] was 0.9 µM, the GI50 [3] was 0.0377 µM and the TGI [3] was 1.09 µM. The GI50 [10] was 0.0317 µM, the TGI [10] was 0.366 µM and the GI50 [4] was 0.0254 µM. For the same compound, the TGI [4] was over 100 µM, the GI50 [6] was 0.0608 µM and the TGI [6] was 0.277 µM. The GI50 [7] was 0.0244 µM, the TGI [7] was over 100 µM and the GI50 [8] was under 0.0187 µM. For the same compound, the TGI [8] was over 100 µM, the GI50 [9] was 0.072 µM and the TGI [9] was 0.649 µM.

For COc1ccc(F)cc1C(=O)c1cnc(NC2CCN(S(C)(=O)=O)CC2)nc1N, the GI50 [1] was 1.66 µM, the TGI [1] was 18.1 µM and the GI50 [2] was 5.42 µM. The TGI [2] was over 20.6 µM, the GI50 [3] was 2.88 µM and the TGI [3] was over 17.6 µM. It also gave a GI50 [4] of 0.636 µM, a TGI [4] of over 16.6 µM and a GI50 [5] of 2.86 µM. The TGI [5] was over 20.5 µM, the GI50 [6] was 4.51 µM and the TGI [6] was over 25 µM. For the same compound, the GI50 [7] was 2.4 µM, the TGI [7] was over 25 µM and the GI50 [8] was 2.63 µM. It also gave a TGI [8] of over 21.3 µM, a GI50 [9] of 5.7 µM and a TGI [9] of over 21.4 µM.

COc1ccc2c(c1)Cc1c-2c(NN)nc2ccccc12 gave a GI50 [1] of 27.9 µM, a TGI [1] of over 100 µM and a GI50 [2] of 56.6 µM. It also gave a TGI [2] of over 100 µM, a GI50 [3] of 39.8 µM and a TGI [3] of over 100 µM. It also gave a GI50 [10] of 66.1 µM, a TGI [10] of over 100 µM and a GI50 [4] of 21.1 µM. It also gave a TGI [4] of over 100 µM, a GI50 [5] of 25.5 µM and a TGI [5] of over 100 µM. The GI50 [6] was 40.1 µM, the TGI [6] was over 100 µM and the GI50 [7] was 13.8 µM. The TGI [7] was over 100 µM, the GI50 [9] was 31.1 µM and the TGI [9] was over 100 µM.

For COc1cc(-c2c(C)c(C)nc(OC)c2C#N)cc(OC)c1OC, the TGI [1] was over 100 µM, the TGI [2] was over 100 µM and the TGI [10] was over 100 µM. It also gave a TGI [4] of over 100 µM, a TGI [5] of over 100 µM and a TGI [6] of over 100 µM. The TGI [7] was over 100 µM, the TGI [8] was over 100 µM and the TGI [9] was over 100 µM.

Compound O=C(CC(=O)C(F)(F)F)c1csc2ccccc12 has a TGI [2] of 81.1 µM, a TGI [10] of over 100 µM and a TGI [4] of over 100 µM. For the same compound, the TGI [5] was over 100 µM, the TGI [6] was 68.9 µM and the TGI [7] was over 100 µM. The TGI [8] was over 100 µM.

O=C(NCC#CCO)C(F)(F)F gave a TGI [2] of over 100 µM, a TGI [3] of over 100 µM and a TGI [10] of over 100 µM. For the same compound, the TGI [4] was over 100 µM, the TGI [5] was over 100 µM and the TGI [6] was over 100 µM. It also gave a TGI [7] of over 100 µM and a TGI [9] of over 100 µM.
